Consider 13 molecules from patent publication US9201014B2, “Development of photostable near-IR cyanine dyes for in vivo imaging” (National University of Singapore, priority 2010, dated 2015).

The nature of data set [1]: Characterization of the CyNAMLA library (absorbance maximum wavelengths). Format: physicochemical. The note with it: absorbance maximum wavelength of CyNAMLA library compounds. As to the method:
The amine group of 21 was protected using di-tert-butyl dicarbonate then derivatized with 80 different primary amines (for structures, see FIGS. 14A-14D). After acetylation of the newly-introduced amine, the compounds were treated with a solution of TFA-DCM (1:9) to remove the tert-butylcarbamate protecting group. The deprotected amine was then coupled to lipoic acid to yield CyNAMLA derivatives with an average purity of 90% (for HPLC-determined purities, see Table 6).

Data set [2] is described as follows: Primary screen of SERS intensities of CyNAMLA-functionalized AuNPs (compact Raman scanner). Format: physicochemical. The note with it: SERS spectra of CyNAMLA-functionalized AuNPs; excitation at 785 nm, laser power 60 mW. On the procedure:
FIG. 15 is a graph of the comparative surface-enhanced Raman spectroscopy (SERS) intensities of members of the CyNAMLA library measured with an excitation wavelength of 785 nm and a laser power of 60 mW in a compact Raman scanner.
The CyNAMLA compounds were adsorbed onto AuNPs having a diameter of approximately 60 nm, and the SERS properties of the resulting CyNAMLA-functionalized AuNPs were evaluated using a compact Raman scanner. Among metal nanoparticles, AuNPs are particularly suitable for in vivo applications due to their low toxicity, adaptability to bioconjugation, and reproducible signal intensity and quantification.

On to `CCCN1/C(=C/C=C2\CCCC(/C=C/C3=[N+](CCCNC(=O)CCCCC4CCSS4)c4ccccc4C3(C)C)=C2N(CCc2ccc(OC)cc2)C(C)=O)C(C)(C)c2ccccc21.O=C([O-])C(F)(F)F` (centres unmarked) [CyNAMLA-395], for which, in data set [1], the “λabs (max)” value was found to be 805 nm. In addition, the Raman intensity in data set [2] was determined as 1876.
Turning to `CCCN1/C(=C/C=C2\CCCC(/C=C/C3=[N+](CCCNC(=O)CCCCC4CCSS4)c4ccccc4C3(C)C)=C2N(Cc2cccc(C)c2)C(C)=O)C(C)(C)c2ccccc21.O=C([O-])C(F)(F)F` (centres unmarked) [CyNAMLA-398], the “λabs (max)” value in data set [1] is 805 nm. The molecule further displayed a Raman intensity in data set [2] of 2629.
On to `CCCN1/C(=C/C=C2\CCCC(/C=C/C3=[N+](CCCNC(=O)CCCCC4CCSS4)c4ccccc4C3(C)C)=C2N(Cc2ccccn2)C(C)=O)C(C)(C)c2ccccc21.O=C([O-])C(F)(F)F` (centres unmarked) [CyNAMLA-401], for which, in data set [1], the “λabs (max)” value is listed as 804 nm. In data set [2], the Raman intensity is reported as 2920.
Take `CCCN1/C(=C/C=C2\CCCC(/C=C/C3=[N+](CCCNC(=O)CCCCC4CCSS4)c4ccccc4C3(C)C)=C2N(CCc2cccc(F)c2)C(C)=O)C(C)(C)c2ccccc21.O=C([O-])C(F)(F)F` (centres unmarked) [CyNAMLA-405]: in data set [1], the “λabs (max)” value is listed as 805 nm. This molecule also came in with a Raman intensity in data set [2] of 12149.
`CCCCCCCCCCN(C(C)=O)C1=C(/C=C/C2=[N+](CCCNC(=O)CCCCC3CCSS3)c3ccccc3C2(C)C)CCC/C1=C\C=C1\N(CCC)c2ccccc2C1(C)C.O=C([O-])C(F)(F)F` (centres unmarked) [CyNAMLA-407]: the “λabs (max)” value in data set [1] is recorded as 806 nm. The molecule also came in with a Raman intensity in data set [2] of 3000.
For `CCCN1/C(=C/C=C2\CCCC(/C=C/C3=[N+](CCCNC(=O)CCCCC4CCSS4)c4ccccc4C3(C)C)=C2N(CCCN(C)C)C(C)=O)C(C)(C)c2ccccc21.O=C([O-])C(F)(F)F` (centres unmarked) [CyNAMLA-427], in that order: 805 nm and 1735.
For `CCCN1/C(=C/C=C2\CCCC(/C=C/C3=[N+](CCCNC(=O)CCCCC4CCSS4)c4ccccc4C3(C)C)=C2N(CCc2ccccc2F)C(C)=O)C(C)(C)c2ccccc21.O=C([O-])C(F)(F)F` (centres unmarked) [CyNAMLA-477], the “λabs (max)” value in data set [1] amounted to 804 nm. For the same molecule, the Raman intensity in data set [2] was determined as 9679.
Consider `CCCN1/C(=C/C=C2\CCCC(/C=C/C3=[N+](CCCNC(=O)CCCCC4CCSS4)c4ccccc4C3(C)C)=C2N(Cc2ccc(Cl)cc2Cl)C(C)=O)C(C)(C)c2ccccc21.O=C([O-])C(F)(F)F` (centres unmarked) [CyNAMLA-531], for which the “λabs (max)” value in data set [1] is on record as 805 nm. The Raman intensity in data set [2] is recorded as 5272.
`CCCN1/C(=C/C=C2\CCCC(/C=C/C3=[N+](CCCNC(=O)CCCCC4CCSS4)c4ccccc4C3(C)C)=C2N(Cc2ccc(Cl)c(Cl)c2)C(C)=O)C(C)(C)c2ccccc21.O=C([O-])C(F)(F)F` (centres unmarked) [CyNAMLA-565]: the “λabs (max)” value in data set [1] stood at 805 nm. In data set [2], the Raman intensity is listed as 14019.
The corresponding values for `CCCN1/C(=C/C=C2\CCCC(/C=C/C3=[N+](CCCNC(=O)CCCCC4CCSS4)c4ccccc4C3(C)C)=C2N(CC(C)CC)C(C)=O)C(C)(C)c2ccccc21.O=C([O-])C(F)(F)F` (centres unmarked) [CyNAMLA-574] are 804 nm and 1763.
With `CCCN1/C(=C/C=C2\CCCC(/C=C/C3=[N+](CCCNC(=O)CCCCC4CCSS4)c4ccccc4C3(C)C)=C2N(CCc2ccccc2-c2ccccc2)C(C)=O)C(C)(C)c2ccccc21.O=C([O-])C(F)(F)F` (centres unmarked) [CyNAMLA-599], the “λabs (max)” value in data set [1] is 804 nm. In data set [2], this molecule had a Raman intensity of 11616.
For `CCCN1/C(=C/C=C2\CCCC(/C=C/C3=[N+](CCCNC(=O)CCCCC4CCSS4)c4ccccc4C3(C)C)=C2N(CCCN2CCCC2)C(C)=O)C(C)(C)c2ccccc21.O=C([O-])C(F)(F)F` (centres unmarked) [CyNAMLA-611], in that order: 804 nm and 18833.
For `CCCN1/C(=C/C=C2\CCCC(/C=C/C3=[N+](CCCNC(=O)CCCCC4CCSS4)c4ccccc4C3(C)C)=C2N(CCc2ccc(Cl)cc2)C(C)=O)C(C)(C)c2ccccc21.O=C([O-])C(F)(F)F` (centres unmarked) [CyNAMLA-677], in that order: 805 nm and 2455.
